From patent US5514715A, “Antimicrobial agent, FR109615 and production thereof” (Fujisawa Pharmaceutical Co., Ltd., priority 1987, dated 1996)
In brackets after ≈: the same amount, converted by molar mass.

Tests used:
[1] = tested on: Tricophyton mentagrophytes; test: Antimicrobial activity, micro-broth dilution method (Test 1); assay type: cell-based; settings: E. MEM, 37° C., 20 hours, 5% CO2, read-out: MIC (minimum inhibitory concentration)
Protocol: (§1) Test 1 (Antimicrobial activity)
(§2) Antimicrobial activity of FR109615 was measured by a conventional micro-broth dilution method using 96 well multi-trays.
(§3) A suspension of the test microorganism (10^6 cells/ml) was prepared by diluting an overnight cultured broth of the organism with Eagle's minimum essential medium (E. MEM). A serially diluted solution of FR109615 in E. MEM (100 μl ) was added to a well of the multi-tray. To the well, the suspension of the test organism was added. The multi-trays were incubated at 37° C. for 20 hours in 5% CO2 atmosphere.

Candida albicans = test: as above; assay type: cell-based; settings: E. MEM, 37° C., 20 hours, 5% CO2, read-out: MIC (minimum inhibitory concentration)
Protocol: as §1, §2, §3

Candida krusei = test: as above; assay type: cell-based; settings: Pichia kudriavzevii, E. MEM, 37° C., 20 hours, 5% CO2, read-out: MIC (minimum inhibitory concentration)
Protocol: as §1, §2, §3

Mucor rouxianus = test: as above; assay type: cell-based; settings: E. MEM, 37° C., 20 hours, 5% CO2, read-out: MIC (minimum inhibitory concentration)
Protocol: as §1, §2, §3

Candida utilis = test: as above; assay type: cell-based; settings: Williopsis jadinii, E. MEM, 37° C., 20 hours, 5% CO2, read-out: MIC (minimum inhibitory concentration)
Protocol: as §1, §2, §3

[2] = Solubility (physicochemical properties)
ICR mice = test: Acute toxicity (Test 4); assay type: in vivo, 4 weeks old); settings: female, single intravenous injection, 1 g/kg
Protocol: The acute toxicity of FR109615 was determined to ICR mice (female, 4 weeks old) by a single intravenous injection.

[3] = tested on: pathogenic microorganisms, especially pathogenic fungi such as pathogenic yeast (e.g. Candida albicans); test: Antimicrobial activity against pathogenic microorganisms (general statement)
[4] = tested on: Staphylococcus aureus Smith; test: Protective effect against bacteria in experimental mice infection (Test 3); assay type: in vivo, ICR strain; settings: inoculum 2.5 × 10^8 cfu, 10 mg/kg subcutaneous once a day for 4 days, 11 days observation, all control mice died
Protocol: Test 3 (Protective effect of FR109615 against bacteria in experimental mice infection)
4 Weeks old mice, ICR strain, each weighing 18-21 g. One group consists of 10 mice.
Pathogenic microorganism suspended in saline were injected into mice via the lateral tail vein. After challenge, a saline solution of FR109615 was subcutaneously injected into the mice (Dosage: 10 mg/kg) once a day for 4 days. […] All of the control mice (non-treatment group) died.

[5] = tested on: C. pseudotropicalis FP584; test: Protective effect against fungi in experimental mice infection (Test 2); assay type: in vivo, ICR strain; settings: Kluyveromyces marxianus, sc, 336 h; C. pseudotropicalis FP584, inoculum 2.0 × 10^7 cfu/head; cyclophosphamide-immunosuppressed mice; subcutaneous, 1 h after challenge then twice a day for 2 days; survival 14 days, probit method
Protocol: (§4) Test 2 (Protective effect of FR109615 against fungi in experimental mice infection) (1) Test animal 4 Weeks old mice, ICR strain, each weighing 18-21 g. One group consists of 10 mice. (2) Test method 4 Days before challenge, the test mice intraperitoneally received a saline solution of cyclophosphamide (immunosuppressant) ([…]). Each pf pathogenic microorganisms suspended in saline were injected into mice via the lateral tail vein. One hour after challenge, a saline solution of FR109615 was subcutaneously injected into the mice. This treatment was repeated twice a day for 2 days from the next day after challenge.

C. stellatoidea FP588 = test: as above; assay type: in vivo, ICR strain; settings: Candida albicans, sc, 336 h; C. stellatoidea FP588, inoculum 2.0 × 10^6 cfu/head; cyclophosphamide-immunosuppressed mice; subcutaneous, 1 h after challenge then twice a day for 2 days; survival 14 days, probit method
Protocol: as §4

Candida albicans FP622 = test: as above; assay type: in vivo, ICR strain; settings: sc, 336 h; Candida albicans FP622, inoculum 4.8 × 10^4 cfu/head; cyclophosphamide-immunosuppressed mice; subcutaneous, 1 h after challenge then twice a day for 2 days; survival 14 days, probit method
Protocol: as §4

C. krusei FP585 = test: as above; assay type: in vivo, ICR strain; settings: Pichia kudriavzevii, sc, 336 h; C. krusei FP585, inoculum 2.0 × 10^7 cfu/head; cyclophosphamide-immunosuppressed mice; subcutaneous, 1 h after challenge then twice a day for 2 days; survival 14 days, probit method
Protocol: as §4

C. tropicalis 8001 = test: as above; assay type: in vivo, ICR strain; settings: Candida tropicalis, sc, 336 h; C. tropicalis 8001, inoculum 5.6 × 10^4 cfu/head; cyclophosphamide-immunosuppressed mice; subcutaneous, 1 h after challenge then twice a day for 2 days; survival 14 days, probit method
Protocol: as §4

N[C@H]1CCC[C@H]1C(=O)O [FR109615, (1R, 2S)-2-aminocyclopentanecarboxylic]
MIC [1]: 250 µg/mL (≈ 1940 µM) | MIC (Candida albicans): 16 µg/mL (≈ 124 µM) | MIC (Candida krusei): 8 µg/mL (≈ 61.9 µM) | MIC (Mucor rouxianus): 500 µg/mL (≈ 3870 µM) | MIC (Candida utilis): 32 µg/mL (≈ 248 µM) | Solubility ([2]; Acetone): Insoluble | Solubility ([2]; Chloroform): Insoluble | Solubility ([2]; Ethanol): Sparingly soluble | Solubility ([2]; Ethyl acetate): Insoluble | Solubility ([2]; Methanol): Sparingly soluble | Solubility ([2]; Water): Soluble | acute toxicity, toxic symptom (ICR mice): No toxic symptom was observed | antimicrobial activity [3]: strong antimicrobial activity | survival ratio [4]: 100% | ED50 [5]: 2.38 mg/kg | ED50 (C. stellatoidea FP588): 1.11 mg/kg | ED50 (Candida albicans FP622): 0.87 mg/kg | ED50 (C. krusei FP585): 0.78 mg/kg | ED50 (C. tropicalis 8001): 3.8 mg/kg
